For one data set, the system named is Beta TC-6 cells. Briefly: High throughput cell-based screening on acinar, Alpha TC-1 and Beta TC-6 cells. More on the design: species or system mouse. The settings on record: 1 μM, 1 hr to 48 hours, 384-well plates. As to the method: To discover pancreatic islet selective probes, we expanded the other two types of BODIPY library generated from the original GY (Glucagon Yellow) structure. We started with high throughput cell-based screening using mouse acinar cells composed of exocrine tissue, mouse Alpha TC-1 cells and Beta TC-6 cells composed of endocrine pancreas islets. Those three different types of cells were prepared side by side in 384-well plates and incubated with 1 μM of BODIPY compounds for different incubation times ranging from 1 hr to 48 hours. The fluorescence images were acquired on an automated imaging microscope system ImageXpress Micro™. The fluorescence intensity of the stained cells was analyzed using MetaXpress® image processing software.

The nature of data set [1]: Spectroscopic measurements (absorption, emission, quantum yield, extinction coefficient). In kind it is physicochemical.
Setting [2] is: BDNCA library, difference emission minus absorption.
[3] abbreviates: BDNCA library, extinction coefficient; in M-1 cm-1 (unit assumed).
The mark [4] stands for this setting: BDNCA library, fluorescence emission.
The mark [5] stands for this setting: absorption maximum, BDNCA library.
The mark [6] stands for this setting: extinction coefficient, BDNCA library; in M-1 cm-1 (unit assumed).
Setting [7] is: fluorescence emission maximum, BDNCA library.
The mark [8] stands for this setting: difference of emission and absorption maxima.

These results are taken from patent US9423396B2, “Bodipy structure fluorescence probes for diverse biological applications” (National University of Singapore, priority 2011, dated 2016).

`Cc1cc(/C=C/c2ccc(-c3ccccc3)cc2)n2c1C(c1ccc(NC(=O)CCl)cc1)=C1C=CC=[N+]1[B-]2(F)F` [BDNCA-5]: in the data set on Beta TC-6 cells, the “staining of alpha cells and beta cells compared with acinar cells” value was “stained either both alpha cells and beta cells or beta cells only as compared with acinar cells”. For the same compound, in data set [1] (BDNCA library), the “Qunt. Yield” value is listed as 0.09. The compound further came in with an Abs in data set [1] (BDNCA library, absorption) of 566 nm. The Flu-Abs in data set [1] (setting [2]) amounted to 23. Besides, in data set [1] (setting [3]), the ε is 39,542. Besides, the Flu in data set [1] (setting [4]) was 589.

Turning to `CC1=CC(/C=C/c2cc(C)c(OCc3ccccc3)c(C)c2)=[N+]2C1=C(c1ccc(NC(=O)CCl)cc1)c1cccn1[B-]2(F)F` [BDNCA-16], the “staining of alpha cells and beta cells compared with acinar cells” value with Beta TC-6 cells was “stained either both alpha cells and beta cells or beta cells only as compared with acinar cells”. In addition, the “Qunt. Yield” value in data set [1] (BDNCA library) is 0.13. In data set [1] (BDNCA library, absorption), the Abs was determined as 562 nm. This compound showed a Flu-Abs in data set [1] (setting [2]) of 23. In data set [1] (setting [3]), the ε is on record as 55,469. In data set [1] (setting [4]), this compound gave a Flu of 585.

Take `CC1=CC(/C=C/C=C/c2ccco2)=[N+]2C1=C(c1ccc(NC(=O)CCl)cc1)c1cccn1[B-]2(F)F` [BDNCA-417]: the Abs in data set [1] (setting [5]) came out at 519 nm. In addition, the ε in data set [1] (setting [6]) is on record as 13,730. Further, in data set [1] (setting [7]), the Flu result is “weak”. The “Qunt. Yield” value in data set [1] (quantum yield, BDNCA library) is reported as “weak”.

Compound `CC1=CC(/C=C/c2cccs2)=[N+]2C1=C(c1ccc(NC(=O)CCl)cc1)c1cccn1[B-]2(F)F` [BDNCA-423] had an Abs in data set [1] (setting [5]) of 569 nm. Also, the Flu-Abs in data set [1] (setting [8]) came to 25. The ε in data set [1] (setting [6]) is recorded as 61,510. The compound further yielded a Flu in data set [1] (setting [7]) of 594. The “Qunt. Yield” value in data set [1] (quantum yield, BDNCA library) was determined as 0.10.

For `CC1=CC(/C=C/c2ccc(-c3ccccc3)c(F)c2)=[N+]2C1=C(c1ccc(NC(=O)CCl)cc1)c1cccn1[B-]2(F)F` [BDNCA-425], the Abs in data set [1] (setting [5]) came out at 562 nm. This compound yielded a Flu-Abs in data set [1] (setting [8]) of 21. Moreover, the ε in data set [1] (setting [6]) is recorded as 46,957. Moreover, the Flu in data set [1] (setting [7]) is 583. The “Qunt. Yield” value in data set [1] (quantum yield, BDNCA library) came to 0.11.

`CC1=CC(/C=C/c2ccc(-c3ccc(Br)cc3)o2)=[N+]2C1=C(c1ccc(NC(=O)CCl)cc1)c1cccn1[B-]2(F)F` [BDNCA-428] showed an Abs in data set [1] (setting [5]) of 506 nm. Further, the Flu-Abs in data set [1] (setting [8]) is 151. Further, in data set [1] (setting [6]), the ε is 17,025. In data set [1] (setting [7]), this compound displayed a Flu of 657. The “Qunt. Yield” value in data set [1] (quantum yield, BDNCA library) is 0.02.

Take `CCOc1ccc(/C=C/C2=[N+]3C(=C(c4ccc(NC(=O)CCl)cc4)c4cccn4[B-]3(F)F)C(C)=C2)cc1` [BDNCA-429]: in data set [1] (setting [5]), the Abs is 566 nm. Further, the Flu-Abs in data set [1] (setting [8]) was found to be 33. Further, the ε in data set [1] (setting [6]) is reported as 64,531. Further, the Flu in data set [1] (setting [7]) is listed as 599. In addition, in data set [1] (quantum yield, BDNCA library), the “Qunt. Yield” value came to 0.14.

On to `CC1=CC(/C=C/c2c(C)nn(C)c2C)=[N+]2C1=C(c1ccc(NC(=O)CCl)cc1)c1cccn1[B-]2(F)F` [BDNCA-430], for which the Abs in data set [1] (setting [5]) was found to be 567 nm. Further, the Flu-Abs in data set [1] (setting [8]) amounted to 34. In data set [1] (setting [6]), the ε was 37,895. In data set [1] (setting [7]), this compound returned a Flu of 601. Moreover, the “Qunt. Yield” value in data set [1] (quantum yield, BDNCA library) is recorded as 0.09.

Take `CC1=CC(/C=C/c2cccc(Oc3ccc(C(C)(C)C)cc3)c2)=[N+]2C1=C(c1ccc(NC(=O)CCl)cc1)c1cccn1[B-]2(F)F` [BDNCA-435]: the Abs in data set [1] (setting [5]) came to 556 nm. The compound further showed a Flu-Abs in data set [1] (setting [8]) of 20. Besides, the ε in data set [1] (setting [6]) is reported as 61,510. The Flu in data set [1] (setting [7]) was 576. Further, the “Qunt. Yield” value in data set [1] (quantum yield, BDNCA library) is given as 0.13.

In the case of `CC1=CC(/C=C/c2ccc(Cl)c(F)c2)=[N+]2C1=C(c1ccc(NC(=O)CCl)cc1)c1cccn1[B-]2(F)F` [BDNCA-437], the Abs in data set [1] (setting [5]) amounted to 556 nm. The Flu-Abs in data set [1] (setting [8]) was found to be 19. Further, the ε in data set [1] (setting [6]) is on record as 47,506. Besides, the Flu in data set [1] (setting [7]) was 575. For the same compound, the “Qunt. Yield” value in data set [1] (quantum yield, BDNCA library) was found to be 0.09.

Compound `COc1cc(/C=C/c2cc(C)c3n2[B-](F)(F)[N+]2=CC=CC2=C3c2ccc(NC(=O)CCl)cc2)ccc1OCCN1CCCC1` [BDNCA-458] displayed an Abs in data set [1] (setting [5]) of 569 nm. The compound also yielded a Flu-Abs in data set [1] (setting [8]) of 39. Further, the ε in data set [1] (setting [6]) is given as 25,538. In data set [1] (setting [7]), this compound returned a Flu of 608. The “Qunt. Yield” value in data set [1] (quantum yield, BDNCA library) was found to be 0.06.
